# Data as given in patent US6579881B2 (Eisai Co., Ltd., priority 1997, dated 2003).
# Where a name gives a salt, the structure may show the parent alone. Read-outs that look alike come from different tables or passages of the source.
# How the values were obtained:
# serotonin 1A receptor = target: T1, serotonin 1A receptor (Rattus norvegicus, UniProt P19327); experiment: Binding test on [3H] 8-hydroxy-dipropylaminotetralin (serotonin 1A receptor); details: [3H] 8-OH-DPAT 0.5 nM, receptor fraction of rat hippocampus; read-out: 5HT1a
# T1 construct: To the receptor fraction of the hippocampus were added a test compound and 0.5 nM of [^3H]; 8-hydroxy-dipropylaminotetralin; from tissue; host or cells: SD rat hippocampus, membrane (receptor) fraction
# T1 sequence (P19327 1-422): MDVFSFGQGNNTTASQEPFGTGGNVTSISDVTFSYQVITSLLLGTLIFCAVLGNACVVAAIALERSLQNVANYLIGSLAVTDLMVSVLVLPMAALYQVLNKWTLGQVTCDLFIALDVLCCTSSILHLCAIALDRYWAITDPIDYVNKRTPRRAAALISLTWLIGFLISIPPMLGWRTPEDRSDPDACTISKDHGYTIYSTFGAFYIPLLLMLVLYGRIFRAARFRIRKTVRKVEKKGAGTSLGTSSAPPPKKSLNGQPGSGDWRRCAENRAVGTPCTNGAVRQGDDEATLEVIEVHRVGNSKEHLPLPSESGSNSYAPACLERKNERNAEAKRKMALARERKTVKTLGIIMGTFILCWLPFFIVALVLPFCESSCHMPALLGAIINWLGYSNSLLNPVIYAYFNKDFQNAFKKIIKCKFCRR
# Experimental: 3) [^3H] 8-Hydroxy-dipropylaminotetralin (8-OH-DPAT).
# Use was made of SD rats aged 6 to 8 weeks.
# The rats were sacrificed by dcapitation to extirpate the cerebra.
# Each mixture was homogenized by using a Teflon glass homogenizer and centrifuged at 1,000×g for 10 min. The supernatant thus obtained was further centrifuged at 20,000×g for 20 min. The obtained precipitate was re-suspended in 50 times (based on the intial wet weight; in the case of the hippocampus) or 10 times (in the case of the cortex) as much a 50 mM Tris hydrochloride (pH 7.4) and incubated at room temperature for 30 min. After centrifuging at 20,000×g for 20 min, the obtained precipitate was further suspended and centrifuged twice each in the same manner. The precipitate thus obtained was suspended in 100 times (based on the initial wet weight; in the case of the hippocampus) or 20 times (in the case of the cortex) as much a 50 mM Tris hydrochloride solution (pH 7.4) to thereby give a receptor fraction. This receptor fraction was stored at −80° C. until using.
# (Binding Test on [^3H] 8-hydroxy-dipropylaminotetralin)
# To the receptor fraction of the hippocampus were added a test compound and 0.5 nM of [^3H] 8-hydroxy-dipropylaminotetralin and the resultant mixture was incubated at room temperature for 30 min. Next, it was filtered through a glass filter with the use of a cell harvester. After washing the glass filter with 50 mM Tris hydrochloride (pH 7.4), the radioactivity of the receptor was measured with a liquid scintillation counter. The binding detected in the presence of 10 μM of serotonin binoxalate was referred to as the nonspecific binding.
# IC50 was calculated by the probit method, while Ki was determined in accordance with the following formula:
# wherein c represents the concentration of the radioisotope-labeled compound, and Kd represents the dissociation constant of the radioisotope-labeled compound with respect to the receptor determined by Scatchard's analysis.
# serotonin 2 receptor = serotonin 2 receptor (Rattus norvegicus, UniProt P14842); experiment: Binding test on [3H] ketanserin (serotonin 2 receptor)
# Sequence of serotonin 2 receptor (P14842 whole entry): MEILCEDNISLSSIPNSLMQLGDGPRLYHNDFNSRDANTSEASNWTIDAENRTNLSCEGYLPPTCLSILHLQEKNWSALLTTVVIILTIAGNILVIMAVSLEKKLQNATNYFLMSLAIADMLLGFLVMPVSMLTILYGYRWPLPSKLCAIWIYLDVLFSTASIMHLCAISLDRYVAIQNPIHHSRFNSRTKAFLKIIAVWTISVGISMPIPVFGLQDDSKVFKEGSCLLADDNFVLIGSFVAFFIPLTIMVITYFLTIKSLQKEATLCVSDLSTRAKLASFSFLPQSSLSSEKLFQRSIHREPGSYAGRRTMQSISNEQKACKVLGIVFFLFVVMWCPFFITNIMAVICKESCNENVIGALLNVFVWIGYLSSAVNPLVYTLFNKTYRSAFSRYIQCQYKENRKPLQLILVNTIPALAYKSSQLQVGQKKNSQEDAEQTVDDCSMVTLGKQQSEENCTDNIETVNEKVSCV
# α1 adrenalin receptor = experiment: Binding test on [3H] prazosin (α1 adrenalin receptor); set-up: species or system rat
# [1] = [3H] ketanserin 0.3 nM, receptor fraction of rat cerebral cortex, read-out: 5HT2
# [2] = [3H] prazosin about 0.2 nM, receptor fraction of rat cerebral cortex
Molecule,Ki (serotonin 1A receptor) [nM],Ki (serotonin 2 receptor; [1]) [nM],Ki (α1 adrenalin receptor; [2]) [nM],Ki (α1 adrenalin receptor) [nM],Ki (serotonin 2 receptor) [nM]
"Fc1ccc(CCN2CCC(N3CCc4ccccc43)CC2)cc1F [Example 11, 1-[1-(3,4-difluorophenethyl)piperidin-4-yl]indoline]",5.7,27.9,147,,
"N#CCNC(=O)Cc1ccc2ccn(C3CCN(CCc4ccc(F)cc4)CC3)c2c1 [Example 308, 1-[1-(4-fluorophenethyl)piperidin-4-yl]-6-cyanomethylcarbamoylmethylindole Oxalate]",0.73,3.84,59.4,,
"O=C(CN1CCCCC1)NCc1ccc2ccn(C3CCN(CCc4ccc(F)cc4)CC3)c2c1 [Example 376, 1-[1-(4-fluorophenethyl)piperidin-4-yl]-6-[(piperidin-1-yl)acetamido]methylindole]",0.91,2.1,46.7,,
"CC(=O)N(C)Cc1ccc2ccn(C3CCN(CCc4ccc(F)cc4)CC3)c2c1 [Example 359, 1-[1-(4-fluorophenethyl)piperidin-4-yl]-6-N-methylacetamidomethylindole]",0.71,7.39,75.9,,
"COc1ccc(C(=O)c2ccc3ccn(C4CCN(CCc5ccc(F)cc5)CC4)c3c2)cn1 [Example 317, 1-[1-(4-fluorophenethyl)piperidin-4-yl]-6-(2-methoxypyridin-5-ylcarbonyl)indole Oxalate]",0.76,> 20,400,,
"O=C(Cc1ccc2ccn(C3CCN(CCc4ccc(F)cc4)CC3)c2c1)NCc1ccncc1 [Example 314, 1-[1-(4-fluorophenethyl)piperidin-4-yl]-6-(pyridin-4-yl)methylcarbamoylmethylindole]",0.72,1.1,51.3,,
"COc1ccc2c(c1)C(N1CCN(CCc3ccc(F)cc3)CC1)CC2 (stereo not drawn) [Example 250, 1-{4-[2-(4-fluorophenyl)ethyl]piperazin-1-yl}-6-methoxyindan Hydrochloride]",1.6,18.8,,263,
"O=C(Cc1ccc2ccn(C3CCN(CCc4ccc(F)cc4)CC3)c2c1)NCC(O)CO (stereo not drawn) [Example 340, 1-[1-(4-fluorophenethyl)piperidin-4-yl]-6-(1,2-dihydroxypropan-3-yl)carbamoylmethylindole Oxalate]",3.02,2.84,340,,
"CC(=O)NCc1ccc2c(C#N)cn(C3CCN(CCc4ccc(F)cc4)CC3)c2c1 [Example 387, 3-cyano-1-[1-(4-fluorophenethyl)piperidin-4-yl]-6-acetamidomethylindole]",63.5,> 20,26.2,,
"CC(=O)NCc1ccc2ccn(C3CCN(CCc4ccc(C(C)O)cc4)CC3)c2c1 (stereo not drawn) [Example 388, 1-{4-[(1-hydroxyethyl)phenethyl]piperidin-4-yl}-6-acetamidomethylindole]",2.26,> 20,366,,
"O=Cc1ccc2ccn(C3CCN(CCc4ccccc4F)CC3)c2c1 [Example 390, 1-[1-(2-fluorophenethyl)piperidin-4-yl]-6-formylindole]",0.99,11.6,34.3,,
"COc1ccc2c(c1)N(C1CCCN(CCc3ccc(F)cc3)CC1)CC2 (stereo not drawn) [Example 291, 1-[1-(4-fluorophenethyl)homopiperidin-4-yl]-6-methoxyindoline]",6.9,101,172,,
"c1ccc2c(c1)CCN2C1CCN(CC2COc3ccccc3O2)CC1 (stereo not drawn) [Example 77, 1-{1-[(1,4-benzodioxan-2-yl)methyl]piperidin-4-yl}indoline]",44.5,13.7,249,,
"O=C(Cc1ccc2ccn(C3CCN(CCc4ccc(F)cc4)CC3)c2c1)N1CCCC1 [Example 298, 1-[1-(4-fluorophenethyl)piperidin-4-yl]-6-(tetramethylenecarbamoylmethyl)indole Oxalate]",1.86,21.3,27.9,,
"CNOOSCc1ccc2c(c1)N(C1CCN(CCc3ccc(F)cc3)CC1)CC2 [Example 164, 1-[1-(4-fluorophenethyl)piperidin-4-yl]-6-(N-methylsulfamoylmethyl)indoline]",0.54,34.1,638,,
"CC1CN(C2CCN(CCc3ccc(F)cc3)CC2)c2ccccc21 (stereo not drawn) [Example 216, 1-[1-(4-fluorophenethyl)piperidin-4-yl]-3-methylindoline]",4.7,42.9,81.6,,

Molecule,Ki (serotonin 1A receptor) [nM],Ki (serotonin 2 receptor; [1]) [nM],Ki (α1 adrenalin receptor; [2]) [nM],Ki (α1 adrenalin receptor) [nM],Ki (serotonin 2 receptor) [nM]
"CC(=O)N1CCC(CNC(=O)Cc2ccc3ccn(C4CCN(CCc5ccc(F)cc5)CC4)c3c2)CC1 [Example 343, Oxalate]",1.54,,38.1,,1.64
"O=C(CCCO)NCc1ccc2ccn(C3CCN(CCc4ccc(F)cc4)CC3)c2c1 [Example 329, 1-[1-(4-fluorophenethyl)piperidin-4-yl]-6-(4-hydroxybutyroylamidomethyl)indole Oxalate]",2.06,2.41,149,,
"O=C(Cc1ccc2ccn(C3CCN(CCc4ccc(F)cc4)CC3)c2c1)NCCN1CCOCC1 [Example 313, 1-[1-(4-fluorophenethyl)piperidin-4-yl]-6-[2-(morpholin-4-yl)ethyl]carbamoylmethylindole Oxalate]",13.1,1.58,144,,
"CS(=O)(=O)NCc1ccc(CCN2CCC(N3CCc4ccccc43)CC2)cc1 [Example 38, 1-[1-(4-methanesulfonylaminomethylphenethyl)piperidin-4-yl]indoline]",15,21.8,244,,
"Fc1ccc(CCN2CCN(C3CCCc4cnccc43)CC2)cc1 (stereo not drawn) [Example 283, 5-{4-[2-(4-fluorophenyl)ethyl]piperazin-1-yl}-5,6,7,8-tetrahydroisoquinoline Hydrochloride]",39.5,40.9,,197,
"O=C(Cc1ccc2ccn(C3CCN(CCc4ccc(F)cc4)CC3)c2c1)NCCN1CCCC1 [Example 312, 1-[1-(4-fluorophenethyl)piperidin-4-yl]-6-[2-(pyrrolidin-1-yl)ethyl]carbamoylmethylindole Oxalate]",8.27,0.56,53.3,,
"CC(=O)NCc1ccc2ccn(C3CCN(CCc4cccnc4)CC3)c2c1 [Example 386, 1-{1-[2-(3-Pyridyl)ethyl]piperidin-4-yl}-6-acetamidomethylindole]",5.38,> 20,26.2,,
"O=C(CCN1CCCCC1)NCc1ccc2ccn(C3CCN(CCc4ccc(F)cc4)CC3)c2c1 [Example 379, 1-[1-(4-fluorophenethyl)piperidin-4-yl]-6-[3-(piperidin-1-yl)propionylamino]methylindole]",9.65,1.25,30.3,,
"CC(=O)NCc1ccc2c(CO)cn(C3CCN(CCc4ccc(F)cc4)CC3)c2c1 [Example 372, 1-[1-(4-fluorophenethyl)piperidin-4-yl]-3-hydroxymethyl-6-acetamidomethylindole]",> 20,> 20,206,,
"1-[1-(4-fluorophenethyl)piperidin-4-yl]-7-hydroxy-(4a,7a)-cyclohexanoindoline and 1-[1-(4-fluorophenethyl)piperidin-4-yl]-4-hydroxy-(3b,6a)-cyclohexanoindoline [Example 236]",29.2,10.6,72.2,,
"CN(C)CC(=O)NCc1ccc2ccn(C3CCN(CCc4ccc(F)cc4)CC3)c2c1 [Example 375, 1-[1-(4-fluorophenethyl)piperidin-4-yl]-6-(N,N-dimethylaminoacetamido)methylindole]",1.56,3.37,61.4,,
"CCNC(=O)CCc1ccc2ccn(C3CCN(CCc4ccc(F)cc4)CC3)c2c1 [Example 311, 1-[1-(4-fluorophenethyl)piperidin-4-yl]-6-[2-(ethylcarbamoyl)ethyl]indole Oxalate]",1.08,46.4,85,,
"CC(=O)NCc1ccc2c(C=O)cn(C3CCN(CCc4ccc(F)cc4)CC3)c2c1 [Example 370, 1-[1-(4-fluorophenethyl)piperidin-4-yl]-3-formyl-6-acetamidomethylindole]",> 20,> 20,256,,
"COc1cccc(Cc2ccc3c(c2)N(C2CCN(CCc4ccc(F)cc4)CC2)CC3)n1 [Example 187, 1-[1-(4-fluorophenethyl)piperidin-4-yl]-6-[1-(2-methoxypyridin-6-yl)methyl]indoline]",65,5.01,> 200,,
"NC(=O)CNC(=O)Cc1ccc2ccn(C3CCN(CCc4ccc(F)cc4)CC3)c2c1 [Example 306, 1-[1-(4-fluorophenethyl)piperidin-4-yl]-6-(carbamoylmethyl)carbamoylmethylindole Oxalate]",2.82,3.87,148,,
"CC(=O)NCc1ccc2ccn(C3CCN(CCCc4ccc(F)cc4)CC3)c2c1 [Example 360, 1-{1-[3-(4-fluorophenyl)propyl]-piperidin-4-yl}-6-acetamidomethylindole]",26.6,> 20,690,,
